In patent US10709745B2, “Tropic cell based virotherapy for the treatment of cancer” (priority 2013, dated 2020):
Like-named read-outs stand apart in the source and are kept apart here.

Columns and labels:
U251 = experiment: Glioma cell viability (MTT) under XRT-TMZ with or without CRAd-S-pk7; assay type: cell-based, human; conditions: for IC50: Homo sapiens, U-251
Experimental: (§1) FIGS. 42A and 42B illustrate antitumor effects of CRAd-Survivin-pk7 (CRAd-S-pk7)-loaded NSCs and their combination with XRT-TMZ against glioma cell lines in vitro according to one embodiment. (FIG. 42A): Cytotoxicity of patient-derived GBM43 tumor cells 96 hours after coculture with CRAd-S-pk7-loaded NSCs at the NSC to GBM43 cell ratios of 1:0, 1:2, 1:5, 1:10, or 1:50. Top: Representative light microscope pictures of GBM43 viability. Bottom: Mean luciferase intensity values represented as the percentages of viable glioma cells compared with control. (FIG. 42B): U251 and U87 glioma cell viability measured by 3-(4,5-dimethylthiazol-2-yl)-2,5-diphenyltetrazolium bromide at 96 hours after treatment. The addition of CRAd-S-pk7 (50 infectious units) to conventional XRT-TMZ therapy reduced the percentage of glioma cell viability in both tested cell lines. […] Abbreviations: NSC, neural stem cell; OV, oncolytic virus; TMZ, temozolomide; XRT, radiation therapy.
(§2) FIGS. 44A and 44B show the optimization of combination therapy in vitro according to one embodiment. (FIG. 44A): Cytotoxicity of U251 and U87 glioma cell lines and GBM39 patient-derived cell line treated with Rx-OV or OV-Rx. Left: The percentage of viability of glioma cells measured by 3-(4,5-dimethylthiazol-2-yl)-2,5-diphenyltetrazolium bromide 96 hours after treatment. Right: Representative light microscope pictures of U87 glioma cell viability (magnification, ×10). (FIG. 44B): Percentage of apoptotic GBM43 cells at 48 hours after treatment with Rx-OV or OV-Rx treatment protocols as measured by the expression of active caspase-3-positive tumor cells by FACS (bottom). Top: Representative FACS plots. *, p<0.05; **, p<0.01; ***, p<0.001. Abbreviations: DMSO, dimethyl sulfoxide; OV-Rx, ionizing radiation-temozolomide therapy 24 hours after oncolytic virus; PE, phycoerythrin; Rx-OV, oncolytic virus 24 hours after ionizing radiation-temozolomide therapy.
(§3) For all studies, the cells and mice received XRT in accordance with the University of Chicago's radiation safety guidelines and protocols. All cells received a single dose of 2 Gy XRT. For animal studies, 10 Gy fractioned dose radiotherapy (2 Gy for 5 consecutive days) was used. The animals were irradiated with a lead cover shielding their entire body, with only their heads exposed. […] For in vivo studies, the mice received 2.5, 5, 10, or 30 mg/kg TMZ via intraperitoneal injection.
(§4) A green fluorescent protein (GFP) expressing HB1.F3-CD cell line was generated as described elsewhere (Ahmed et al. 2011a). GBM43-Fluc cells were plated in 12-well plates and cocultured with HB1.F3-CDGFP cells loaded with CRAd-S-pk7 in the following NSC to glioma cell ratios: 1:0, 1:2, 1:5, 1:10, and 1:50. After 96 hours, the cells were collected, lysed with reporter lysis buffer (Promega, Madison, Wis., http://www.promega.com), and added to luciferase assay reagent (Promega) according to the manufacturer's protocol. Following lysate preparation, the mean fluorescence intensity (MFI) was estimated for each group of cocultured cells using the GloMax 20/20 Luminometer (Promega). The mean luciferase intensity values were represented as the percentage of cells viable compared with mock cells. U251, U87, and GBM39 cell viability was determined using 3-(4,5-dimethylthiazol-2-yl)-2,5-diphenyltetrazolium bromide (MTT) cell proliferation kit (Roche Diagnostics, Mannheim, Germany, http://www.roche-applied-science.com). The viability was subsequently determined by MTT as described by the manufacturer's protocol. Cell viability was expressed as the percentage of cells alive compared with the dimethyl sulfoxide-treated control.
(§5) Next, it was tested whether CRAd-S-pk7 could enhance the therapeutic efficacy of conventional XRT-TMZ. U251 or U87 glioma cells were treated with conventional therapy consisting of 2 Gy XRT and varying concentrations of TMZ (0-1×10^3 µM) or conventional treatment plus 50 IU of CRAd-S-pk7, and cell viability was measured by MTT at 96 hours. […]

U87 = experiment: as above; assay type: cell-based, human; conditions: for IC50: Homo sapiens, U-87 MG
Experimental: as §1, §2, §3, §4, §5

[1] = 2 Gy XRT plus 50 IU of CRAd-S-pk7, MTT 96 hours, read-out: IC50 values for TMZ
[2] = treated with XRT (2 Gy) simultaneously, read-out: IC50

Cn1nnc2c(C(N)=O)ncn2c1=O [TMZ, temozolomide]
IC50 (U251; [1]): 13 µM
IC50 (U251; [2]): 44 µM
decrease of TMZ IC50 when OV was added (U251; XRT-TMZ): 31 µM
IC50 (U87; [1]): 10 µM
IC50 (U87; [2]): 25 µM
decrease of TMZ IC50 when OV was added (U87; XRT-TMZ): 15 µM
